System: vasodilator-stimulated phosphoprotein (VASP)
Test: Example 4: vasodilator-stimulated phosphoprotein (VASP) index
Type: in vivo, human
Description: The study involved 12 patients who met the criteria of being 18-75 years of age, having coronary artery disease (CAD) documented by a previous MI or coronary revascularization, and taking 81 mg of aspirin daily. […] Prohibited concomitant medications included strong and potent CYP3A inhibitors, simvastatin and lovastatin at doses more than 40 mg/day, omeprazole or esomeprazole, and digoxin. Use of non-steroidal anti-inflammatory agents was discouraged during study participation but not prohibited.
Each patient was administered a 30 μg/kg bolus of cangrelor followed immediately by a 2 hr infusion at a rate of 4.0 μg/kg/min. A loading dose of ticagrelor (180 mg) was given after 0.5 hr or 1.25 hr (n=6 for each). Blood for pharmacodynamic platelet function studies was taken after 0.5 or 1.25 hr (corresponding to the time of ticagrelor load, n=6 for each), and then at 1.75, 2, 2.25, 2.5, 2.75, 3, 4, and 5.25 hr. Patients were assigned randomly to receive either 6 (n=6) or 7 (n=6) doses of ticagrelor to be taken every 12 hours following the discontinuation of the infusion of cangrelor. On study day 5, each patient was administered a 30 μg/kg bolus of cangrelor followed immediately by a 2 hr infusion at a rate of 4.0 μg/kg/min. Blood for pharmacodynamic assessment was taken after 1 and 2 hr. Adverse events were queried throughout study participation that ended with a telephone interview performed on study day 10-12.
Pharmacodynamic assessment included light transmission aggregometry (LTA), VerifyNow® P2Y12 assay, vasodilator-stimulated phosphoprotein (VASP) index, and platelet activation measured with the use of flow cytometry. Assessment of LTA, VerifyNow®, and platelet activation with the use of flow cytometry was performed within 30 min of blood being taken. In the case of flow cytometry, samples were processed to fixation and then batched for analysis. For VASP, index samples were batched and processed as recommended by the vendor within 2 h of blood being taken. This approach limited the time from fixation of VASP index to flow analysis to less than 1 h.
LTA induced by 5 μM and 20 μM adenosine diphosphate (ADP) was quantified ex vivo (i.e. in non-adjusted platelet rich plasma). Platelet-poor plasma was set as 100% aggregation, and both maximal (peak) and terminal (at 300 s) aggregation were measured with a PAP4 aggregometer (BioData, Horsham, Pa.). VerifyNow® P2Y12 assay (Accumetrics Inc, San Diego, Calif.) that measures the effects of drugs on the P2Y12 receptor by activating platelets with prostaglandin El in addition to ADP was used in accordance with the instructions provided by the manufacturer. Platelet reactivity was expressed in P2Y12 reaction units (PRU). Activation of platelets was identified with the use of flow cytometry as previously described.^17. And to determine the VASP index, a commercially available kit (Diagnostica Stago, Inc, Parsippany NJ) was used. ^17 Schneider D J, Sobel B E. Streamlining the design of promising clinical trials: in-vitro testing of antithrombotic regimens and multiple agonists of platelet activation. Coron Artery Dis. 2009; 20:175-8.

For `CSCCNc1nc(SCCC(F)(F)F)nc2c1ncn2[C@@H]1O[C@H](COP(=O)(O)OP(=O)(O)C(Cl)(Cl)P(=O)(O)O)[C@@H](O)[C@H]1O` [Cangrelor, cangrelor], the “VASP Index VI” value (Study Day 1, 1.75 h, All) was 13 ± 9, the “VASP Index VI” value (Study Day 1, 1.75 h, Ticagrelor at 0.5 hr) was 13 ± 9 and the “VASP Index VI” value (Study Day 1, 1.75 h, Ticagrelor at 1.25 hr) was 13 ± 4. The “VASP Index VI” value (Study Day 1, 2.0 h, All) was 15 ± 9, the “VASP Index VI” value (Study Day 1, 2.0 h, Ticagrelor at 0.5 hr) was 11 ± 7 and the “VASP Index VI” value (Study Day 1, 2.0 h, Ticagrelor at 1.25 hr) was 19 ± 7. For the same compound, the “VASP Index VI” value (Study Day 1, reference 0.5/1.25 h, All) was 18 ± 10, the “VASP Index VI” value (Study Day 1, reference 0.5/1.25 h, Ticagrelor at 0.5 hr) was 18 ± 13 and the “VASP Index VI” value (Study Day 1, reference 0.5/1.25 h, Ticagrelor at 1.25 hr) was 19 ± 8. For the same compound, the “VASP Index VI” value (Study Day 5, 1.0 h, All) was 16 ± 11, the “VASP Index VI” value (Study Day 5, 1.0 h, Ticagrelor 6 doses) was 19 ± 14 and the “VASP Index VI” value (Study Day 5, 1.0 h, Ticagrelor 7 doses) was 12 ± 7. The “VASP Index VI” value (Study Day 5, 2.0 h, All) was 17 ± 5, the “VASP Index VI” value (Study Day 5, 2.0 h, Ticagrelor 6 doses) was 20 ± 3 and the “VASP Index VI” value (Study Day 5, 2.0 h, Ticagrelor 7 doses) was 14 ± 6.
In the case of `CCCSc1nc(N[C@@H]2C[C@H]2c2ccc(F)c(F)c2)c2nnn([C@@H]3C[C@H](OCCO)[C@@H](O)[C@H]3O)c2n1` [ticagrelor], the “VASP Index VI” value (2.25 h, All) is reported as 35 ± 10, the “VASP Index VI” value (2.25 h, Ticagrelor at 0.5 h) is reported as 37 ± 8 and the “VASP Index VI” value (2.25 h, Ticagrelor at 1.25 h) is reported as 32 ± 11. The “VASP Index VI” value (2.5 h, All) was 48 ± 49, the “VASP Index VI” value (2.5 h, Ticagrelor at 0.5 h) was 41 ± 25 and the “VASP Index VI” value (2.5 h, Ticagrelor at 1.25 h) was 54 ± 32. For the same compound, the “VASP Index VI” value (2.75 h, All) was 22 ± 16, the “VASP Index VI” value (2.75 h, Ticagrelor at 0.5 h) was 21 ± 13 and the “VASP Index VI” value (2.75 h, Ticagrelor at 1.25 h) was 22 ± 20. The “VASP Index VI” value (3 h, All) was 25 ± 19, the “VASP Index VI” value (3 h, Ticagrelor at 0.5 h) was 24 ± 19 and the “VASP Index VI” value (3 h, Ticagrelor at 1.25 h) was 26 ± 20. For the same compound, the “VASP Index VI” value (4 h, All) was 17 ± 14, the “VASP Index VI” value (4 h, Ticagrelor at 0.5 h) was 16 ± 14 and the “VASP Index VI” value (4 h, Ticagrelor at 1.25 h) was 19 ± 16. The “VASP Index VI” value (reference 5.25 h, All) was 12 ± 12, the “VASP Index VI” value (reference 5.25 h, Ticagrelor at 0.5 h) was 11 ± 10 and the “VASP Index VI” value (reference 5.25 h, Ticagrelor at 1.25 h) was 14 ± 15.

From US8680052B1, “Methods of treating, reducing the incidence of, and/or preventing ischemic events” (The Medicines Company, priority 2013, dated 2014)
